Results taken from patent US11111242B2, “Pyrrolo[2,3-d]pyrimidinyl, pyrrolo[2,3-b]pyrazinyl and pyrrolo[2,3-d]pyridinyl acrylamides” (Pfizer Inc., priority 2013, dated 2021).
Like-named read-outs stand apart in the source and are kept apart here.

Legend:
[1] = system: IL-15 induced STAT5 phosphorylation in Human Whole Blood (total lymphocytes); experiment: HWB IL-15 Induced STAT5 Phosphorylation Assay; assay type: cell-based; conditions: Lymphocyte, IL-15 stimulated, read-out: HWB-IL15-pSTAT5 IC50
Method: HWB IL-15 Induced STAT5 Phosphorylation Assay
After mixing and incubating for 45 minutes at 37° C., 5 μl D-PBS (unstimulated control) or 20× stocks of 5 μl human IL-15 (final concentration is 50 ng/ml) were added, and mixed three times. After incubating 15 minutes at 37° C., 1× Lyse/Fix Buffer (BD Phosflow 5× Lyse/Fix Buffer) was added to all wells at 1000 μl/well, then incubated for 20 minutes at 37° C. and spun 5 mins at 1200 rpm. […] Following incubating at 4° C. over night, all the samples were transferred to 96-well polypropylene U-bottom plate, and checked by flow cytometry gated on total lymphocytes.

[2] = system: IL-15 induced P-STAT5 in human PBMC (total lymphocytes); experiment: PBMC IL-15 Induced P-STAT5; assay type: cell-based; conditions: IL-15 stimulated, read-out: PBMC IL15-pSTAT5 IC50
In short: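 Thawed human PBMC in RPMI, preincubated 30 min at 37 °C, then IL-15 stimulated. Cells methanol-permeabilized (90%, on ice 20 min) and stained for phospho-STAT5. Read by flow cytometry, gated on total lymphocytes.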

SMILES | IC50 [1] [nM] | IC50 ([2]; Homo sapiens, PBMC) [nM] | IC50 [2] [nM]
C=CC(=O)N1CCC(Nc2cnc3[nH]cc(C(=O)N[C@@H]4CC[C@H](F)C4)c3n2)CC1 [Example 255, 2-[(1-acryloylpiperidin-4-yl)amino]-N-[(1R,3S)-3-fluorocyclopentyl]-5H-pyrrolo[2,3-b]pyrazine-7-carboxamide] | 818 | 130 | –
C=CC(=O)N1CCC(Nc2cnc3[nH]cc(C(=O)NC4CCCCC4(F)F)c3n2)CC1 (centres unmarked) [Example 256, 2-[(1-acryloylpiperidin-4-yl)amino]-N-(2,2-difluorocyclohexyl)-5H-pyrrolo[2,3-b]pyrazine-7-carboxamide] | 550 | – | 48.6
C=CC(=O)N1CCC(Nc2cnc3[nH]cc(C(=O)NC4CCC(F)(F)C4)c3n2)CC1 (centres unmarked) [Example 259, 2-[(1-acryloylpiperidin-4-yl)amino]-N-(3,3-difluorocyclopentyl)-5H-pyrrolo[2,3-b]pyrazine-7-carboxamide] | 668 | – | 117
C=CC(=O)N1CCC(Nc2cnc3[nH]cc(C(=O)NCCC#N)c3n2)CC1 [Example 261, 2-[(1-acryloylpiperidin-4-yl)amino]-N-(2-cyanoethyl)-5H-pyrrolo[2,3-b]pyrazine-7-carboxamide] | 215 | – | 214
C=CC(=O)N1CCC(Nc2cnc3[nH]cc(C(=O)N[C@H](CC)CC#N)c3n2)CC1 [Example 263, 2-[(1-acryloylpiperidin-4-yl)amino]-N-[(2R)-1-cyanobutan-2-yl]-5H-pyrrolo[2,3-b]pyrazine-7-carboxamide] | 431 | – | 74.3
C=CC(=O)N1CCC(Nc2cnc3[nH]cc(C(=O)NC(C)(C)C)c3n2)CC1 [Example 266, 2-[(1-acryloylpiperidin-4-yl)amino]-N-tert-butyl-5H-pyrrolo[2,3-b]pyrazine-7-carboxamide] | 386 | – | 71
C=CC(=O)N1CCC(Nc2cnc3[nH]cc(C(=O)NCCCC)c3n2)CC1 [Example 269, 2-[(1-acryloylpiperidin-4-yl)amino]-N-butyl-5H-pyrrolo[2,3-b]pyrazine-7-carboxamide] | 364 | – | 47.9
C=CC(=O)N1CCC(Nc2cnc3[nH]cc(C(=O)NCC4CCCC4)c3n2)CC1 [Example 270, 2-[(1-acryloylpiperidin-4-yl)amino]-N-(cyclopentylmethyl)-5H-pyrrolo[2,3-b]pyrazine-7-carboxamide] | 1220 | 53.6 | –
C=CC(=O)N1CCC(Nc2cnc3[nH]cc(C(=O)NCC(C)(C)C)c3n2)CC1 [Example 271, 2-[(1-acryloylpiperidin-4-yl)amino]-N-(2,2-dimethylpropyl)-5H-pyrrolo[2,3-b]pyrazine-7-carboxamide] | 790 | 135 | –
C=CC(=O)N1CCC(Nc2cnc3[nH]cc(C(=O)NCC(C)C)c3n2)CC1 [Example 272, 2-[(1-acryloylpiperidin-4-yl)amino]-N-(2-methylpropyl)-5H-pyrrolo[2,3-b]pyrazine-7-carboxamide] | 259 | 72.3 | –
C=CC(=O)N1CCC(Nc2cnc3[nH]cc(C(=O)NCC(F)(F)F)c3n2)CC1 [Example 273, 2-[(1-acryloylpiperidin-4-yl)amino]-N-(2,2,2-trifluoroethyl)-5H-pyrrolo[2,3-b]pyrazine-7-carboxamide] | 214 | – | 56.7
C=CC(=O)N1CCC(Nc2cnc3[nH]cc(C(=O)NCCOC)c3n2)CC1 [Example 275, 2-[(1-acryloylpiperidin-4-yl)amino]-N-(2-methoxyethyl)-5H-pyrrolo[2,3-b]pyrazine-7-carboxamide] | 389 | – | 149
C=CC(=O)N1CCC(Nc2cnc3[nH]cc(C(=O)NC(C)(C)CC)c3n2)CC1 [Example 276, 2-[(1-acryloylpiperidin-4-yl)amino]-N-(2-methylbutan-2-yl)-5H-pyrrolo[2,3-b]pyrazine-7-carboxamide] | 487 | – | 57.8
C=CC(=O)N1CCC(Nc2cnc3[nH]cc(C(=O)NC4CCCCC4)c3n2)CC1 [Example 278, 2-[(1-acryloylpiperidin-4-yl)amino]-N-cyclohexyl-5H-pyrrolo[2,3-b]pyrazine-7-carboxamide] | 362 | – | 57.4
C=CC(=O)N1CCC(Nc2cnc3[nH]cc(C(=O)NC4CCC4)c3n2)CC1 [Example 280, 2-[(1-acryloylpiperidin-4-yl)amino]-N-cyclobutyl-5H-pyrrolo[2,3-b]pyrazine-7-carboxamide] | 376 | – | 39.4
C=CC(=O)N1CCC(Nc2cnc3[nH]cc(C(=O)NC45CC(C4)C5)c3n2)CC1 [Example 281, 2-[(1-acryloylpiperidin-4-yl)amino]-N-(bicyclo[1.1.1]pent-1-yl)-5H-pyrrolo[2,3-b]pyrazine-7-carboxamide] | 489 | 31.5 | –
C=CC(=O)N1CCC(Nc2cnc3[nH]cc(C(=O)NCC(C)(F)F)c3n2)CC1 [Example 282, 2-[(1-acryloylpiperidin-4-yl)amino]-N-(2,2-difluoropropyl)-5H-pyrrolo[2,3-b]pyrazine-7-carboxamide] | 432 | – | 71.7
C=CC(=O)N1CCC(Nc2cnc3[nH]cc(C(=O)NC4CCCC4)c3n2)CC1 [Example 283, 2-[(1-acryloylpiperidin-4-yl)amino]-N-cyclopentyl-5H-pyrrolo[2,3-b]pyrazine-7-carboxamide] | 700 | 58.4 | –
C=CC(=O)N1CCC(Nc2cnc3[nH]cc(C(=O)N[C@@H](C)CC)c3n2)CC1 [Example 285, 2-[(1-acryloylpiperidin-4-yl)amino]-N-[(2S)-butan-2-yl]-5H-pyrrolo[2,3-b]pyrazine-7-carboxamide] | 373 | – | 31.4
C=CC(=O)N1CCC(Nc2cnc3[nH]cc(C(=O)NC(C)C4CC4)c3n2)CC1 (centres unmarked) [Example 288, 2-[(1-acryloylpiperidin-4-yl)amino]-N-(1-cyclopropylethyl)-5H-pyrrolo[2,3-b]pyrazine-7-carboxamide] | 358 | 44.4 | –
C=CC(=O)N1[C@@H]2CC[C@H]1CN(c1cnc3[nH]cc(C(=O)NC(C)C)c3n1)C2 [Example 301, 2-[(1R,5S)-8-acryloyl-3,8-diazabicyclo[3.2.1]oct-3-yl]-N-(propan-2-yl)-5H-pyrrolo[2,3-b]pyrazine-7-carboxamide] | 4900 | – | 408

More lines, main results first:

IC50 [1] [nM] | SMILES | IC50 ([2]; Homo sapiens, PBMC) [nM] | IC50 [2] [nM]
242 | C=CC(=O)N1CCC(Nc2cnc3[nH]cc(C(=O)N[C@@H](C)CCC)c3n2)CC1 [Example 267, 2-[(1-acryloylpiperidin-4-yl)amino]-N-[(2S)-pentan-2-yl]-5H-pyrrolo[2,3-b]pyrazine-7-carboxamide] | – | 36
263 | C=CC(=O)N1CCC(Nc2cnc3[nH]cc(C(=O)N[C@H](C)COC)c3n2)CC1 [Example 268, 2-[(1-acryloylpiperidin-4-yl)amino]-N-[(2R)-1-methoxypropan-2-yl]-5H-pyrrolo[2,3-b]pyrazine-7-carboxamide] | 43.4 | –
476 | C=CC(=O)N1CCC(Nc2cnc3[nH]cc(C(=O)N[C@H](C)CCC)c3n2)CC1 [Example 274, 2-[(1-acryloylpiperidin-4-yl)amino]-N-[(2R)-pentan-2-yl]-5H-pyrrolo[2,3-b]pyrazine-7-carboxamide] | – | 57.9
83.2 | C=CC(=O)N1CCC(Nc2cnc3[nH]cc(C(=O)N[C@@H](C)COC)c3n2)CC1 [Example 277, 2-[(1-acryloylpiperidin-4-yl)amino]-N-[(2S)-1-methoxypropan-2-yl]-5H-pyrrolo[2,3-b]pyrazine-7-carboxamide] | 103 | –
106 | C=CC(=O)N1CCC(Nc2cnc3[nH]cc(C(=O)N[C@H](C)CC)c3n2)CC1 [Example 289, 2-[(1-acryloylpiperidin-4-yl)amino]-N-[(2R)-butan-2-yl]-5H-pyrrolo[2,3-b]pyrazine-7-carboxamide] | – | 37.5
4490 | C=CC(=O)N1CCN(c2cnc3[nH]cc(C(=O)NC(C)C)c3n2)CC1(C)C [Example 293, 2-(4-acryloyl-3,3-dimethylpiperazin-1-yl)-N-(propan-2-yl)-5H-pyrrolo[2,3-b]pyrazine-7-carboxamide] | 300 | –
2670 | C=CC(=O)N1CCN(c2cnc3[nH]cc(C(=O)NC(C)C)c3n2)C[C@@H]1C [Example 295, 2-[(3S)-4-acryloyl-3-methylpiperazin-1-yl]-N-(propan-2-yl)-5H-pyrrolo[2,3-b]pyrazine-7-carboxamide] | – | 334
1380 | C=CC(=O)N1CCN(c2cnc3[nH]cc(C(=O)NC(C)C)c3n2)C[C@@H]1CC [Example 299, 2-[(3S)-4-acryloyl-3-ethylpiperazin-1-yl]-N-(propan-2-yl)-5H-pyrrolo[2,3-b]pyrazine-7-carboxamide] | – | 225
3400 | C=CC(=O)N1C[C@@H]2C[C@H]1CN2c1cnc2[nH]cc(C(=O)NC(C)C)c2n1 [Example 300, 2-[(1S,4S)-5-acryloyl-2,5-diazabicyclo[2.2.1]hept-2-yl]-N-(propan-2-yl)-5H-pyrrolo[2,3-b]pyrazine-7-carboxamide] | – | 714
1310 | C=CC(=O)N1CC[C@@H](Nc2cnc3[nH]cc(C(=O)NC(C)C)c3n2)[C@@H](OC)C1 [Example 302, 2-{[(3S,4R)-1-acryloyl-3-methoxypiperidin-4-yl]amino}-N-(propan-2-yl)-5H-pyrrolo[2,3-b]pyrazine-7-carboxamide] | – | 264
